The source of these data is ChEMBL document CHEMBL5291721, “A preclinical secondary pharmacology resource illuminates target-adverse drug reaction associations of marketed drugs” (Nat Commun, 2023).

Some results are limits rather than exact numbers.

The target of test [1] is 5-hydroxytryptamine receptor 2A (Homo sapiens, UniProt P28223). Type of test: functional, cell-based.
A further test concerns the target Mu-type opioid receptor (Homo sapiens, UniProt P35372). The test is described as follows: biochemical. Type of test: functional.
The target in test [2] is T1, Gastrin/cholecystokinin type B receptor (Homo sapiens, UniProt P32239).
T1 sequence (P32239 whole entry): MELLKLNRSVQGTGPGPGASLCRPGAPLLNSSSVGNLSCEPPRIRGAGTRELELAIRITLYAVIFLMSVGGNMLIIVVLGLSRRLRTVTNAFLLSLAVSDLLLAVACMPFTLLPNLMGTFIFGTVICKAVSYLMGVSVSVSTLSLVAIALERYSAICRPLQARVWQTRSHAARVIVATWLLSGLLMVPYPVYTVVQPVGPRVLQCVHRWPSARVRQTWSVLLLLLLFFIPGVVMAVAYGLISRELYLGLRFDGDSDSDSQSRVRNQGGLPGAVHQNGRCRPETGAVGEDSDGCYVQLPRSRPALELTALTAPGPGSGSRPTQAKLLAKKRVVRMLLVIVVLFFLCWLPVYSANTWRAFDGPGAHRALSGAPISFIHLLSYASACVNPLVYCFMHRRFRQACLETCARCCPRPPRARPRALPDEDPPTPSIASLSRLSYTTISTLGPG

Test [3] concerns the target T2, Amine oxidase [flavin-containing] A (Homo sapiens, UniProt P21397).
T2 sequence (P21397 whole entry): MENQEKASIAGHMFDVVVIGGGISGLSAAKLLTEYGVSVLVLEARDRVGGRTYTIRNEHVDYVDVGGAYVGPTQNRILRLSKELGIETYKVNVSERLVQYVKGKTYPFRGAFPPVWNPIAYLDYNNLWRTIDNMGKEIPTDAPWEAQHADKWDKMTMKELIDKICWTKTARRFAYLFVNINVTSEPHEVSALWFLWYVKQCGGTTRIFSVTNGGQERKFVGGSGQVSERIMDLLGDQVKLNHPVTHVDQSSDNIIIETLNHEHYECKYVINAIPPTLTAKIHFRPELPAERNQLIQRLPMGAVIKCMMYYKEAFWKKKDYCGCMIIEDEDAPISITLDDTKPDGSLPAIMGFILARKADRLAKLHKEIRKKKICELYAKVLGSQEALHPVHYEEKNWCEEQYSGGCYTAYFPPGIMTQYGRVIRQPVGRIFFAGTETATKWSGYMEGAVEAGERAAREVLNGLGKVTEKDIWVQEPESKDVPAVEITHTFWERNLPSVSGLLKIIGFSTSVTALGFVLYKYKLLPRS
The format is functional.

Another test addresses T3, Endothelin-1 receptor (Homo sapiens, UniProt P25101).
T3 sequence (P25101 whole entry): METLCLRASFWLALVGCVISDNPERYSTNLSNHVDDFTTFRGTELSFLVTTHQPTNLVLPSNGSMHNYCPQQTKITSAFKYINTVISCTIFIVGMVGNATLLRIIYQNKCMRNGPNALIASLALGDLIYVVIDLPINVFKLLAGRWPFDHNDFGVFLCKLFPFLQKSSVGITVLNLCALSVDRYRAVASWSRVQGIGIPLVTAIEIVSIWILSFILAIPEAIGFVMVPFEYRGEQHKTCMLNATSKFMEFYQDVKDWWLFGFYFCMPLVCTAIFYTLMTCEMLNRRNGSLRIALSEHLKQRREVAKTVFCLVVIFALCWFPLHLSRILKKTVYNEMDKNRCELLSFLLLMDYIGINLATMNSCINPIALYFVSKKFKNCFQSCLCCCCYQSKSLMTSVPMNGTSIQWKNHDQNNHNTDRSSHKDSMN

For the next test, the target named is T4, Progesterone receptor (Homo sapiens, UniProt P06401).
T4 sequence (P06401 whole entry): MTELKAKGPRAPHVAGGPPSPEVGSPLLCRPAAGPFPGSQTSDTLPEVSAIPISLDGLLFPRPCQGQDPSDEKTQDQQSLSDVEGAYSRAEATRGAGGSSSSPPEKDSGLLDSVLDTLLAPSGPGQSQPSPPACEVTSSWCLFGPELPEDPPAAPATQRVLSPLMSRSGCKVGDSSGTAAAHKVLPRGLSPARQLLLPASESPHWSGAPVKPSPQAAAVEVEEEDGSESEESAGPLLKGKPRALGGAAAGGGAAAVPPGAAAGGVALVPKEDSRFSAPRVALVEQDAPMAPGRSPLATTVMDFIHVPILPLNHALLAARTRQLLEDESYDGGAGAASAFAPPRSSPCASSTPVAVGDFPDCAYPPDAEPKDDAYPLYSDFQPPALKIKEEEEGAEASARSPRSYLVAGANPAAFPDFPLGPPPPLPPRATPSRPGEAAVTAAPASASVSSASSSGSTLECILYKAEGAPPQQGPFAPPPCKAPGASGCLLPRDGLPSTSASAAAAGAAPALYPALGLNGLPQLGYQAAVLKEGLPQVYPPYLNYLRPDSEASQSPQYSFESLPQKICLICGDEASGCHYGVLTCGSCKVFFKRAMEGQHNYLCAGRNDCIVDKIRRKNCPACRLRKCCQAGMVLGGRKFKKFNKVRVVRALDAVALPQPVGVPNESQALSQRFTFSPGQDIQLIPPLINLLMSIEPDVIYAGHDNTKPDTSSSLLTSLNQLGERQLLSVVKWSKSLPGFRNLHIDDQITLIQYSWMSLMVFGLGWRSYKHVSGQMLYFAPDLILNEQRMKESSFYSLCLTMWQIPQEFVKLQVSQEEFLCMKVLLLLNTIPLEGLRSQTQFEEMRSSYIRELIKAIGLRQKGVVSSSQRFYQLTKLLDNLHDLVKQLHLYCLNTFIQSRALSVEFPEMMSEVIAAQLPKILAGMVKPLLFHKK
The format is functional.

Another test concerns the target Cannabinoid receptor 1 (Homo sapiens, UniProt P21554). Type of test: functional, cell-based.
Test [4] deals with T5, Alpha-1A adrenergic receptor (Homo sapiens, UniProt P35348).
T5 sequence (P35348 whole entry): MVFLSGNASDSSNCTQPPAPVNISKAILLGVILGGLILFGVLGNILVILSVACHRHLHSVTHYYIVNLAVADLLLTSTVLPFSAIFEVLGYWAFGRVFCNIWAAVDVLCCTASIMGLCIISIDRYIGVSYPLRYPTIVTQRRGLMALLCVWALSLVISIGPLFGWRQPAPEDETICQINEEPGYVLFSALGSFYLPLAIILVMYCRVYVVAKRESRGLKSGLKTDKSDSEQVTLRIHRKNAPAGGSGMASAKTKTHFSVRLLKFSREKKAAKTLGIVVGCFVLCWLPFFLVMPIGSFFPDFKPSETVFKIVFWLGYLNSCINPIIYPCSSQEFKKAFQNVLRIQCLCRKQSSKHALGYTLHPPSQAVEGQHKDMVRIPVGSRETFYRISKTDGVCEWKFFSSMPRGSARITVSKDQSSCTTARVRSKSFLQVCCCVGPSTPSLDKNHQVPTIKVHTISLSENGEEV
The format is functional, cell-based.
Also: assay procedure not described here.

Cannabinoid receptor 1, sequence (P21554 whole entry): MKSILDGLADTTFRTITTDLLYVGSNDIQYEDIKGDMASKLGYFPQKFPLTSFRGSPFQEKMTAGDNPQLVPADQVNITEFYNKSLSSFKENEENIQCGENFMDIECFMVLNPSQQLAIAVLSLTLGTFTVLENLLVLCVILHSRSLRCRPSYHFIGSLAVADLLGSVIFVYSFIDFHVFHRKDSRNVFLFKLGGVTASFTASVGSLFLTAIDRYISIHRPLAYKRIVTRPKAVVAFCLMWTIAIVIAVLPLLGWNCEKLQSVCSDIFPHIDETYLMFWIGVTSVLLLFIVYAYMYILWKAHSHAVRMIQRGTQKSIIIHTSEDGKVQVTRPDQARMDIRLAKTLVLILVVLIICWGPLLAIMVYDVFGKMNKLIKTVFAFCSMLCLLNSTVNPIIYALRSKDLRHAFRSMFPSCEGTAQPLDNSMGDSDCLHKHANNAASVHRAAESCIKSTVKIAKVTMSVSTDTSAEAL
5-hydroxytryptamine receptor 2A, sequence (P28223 whole entry): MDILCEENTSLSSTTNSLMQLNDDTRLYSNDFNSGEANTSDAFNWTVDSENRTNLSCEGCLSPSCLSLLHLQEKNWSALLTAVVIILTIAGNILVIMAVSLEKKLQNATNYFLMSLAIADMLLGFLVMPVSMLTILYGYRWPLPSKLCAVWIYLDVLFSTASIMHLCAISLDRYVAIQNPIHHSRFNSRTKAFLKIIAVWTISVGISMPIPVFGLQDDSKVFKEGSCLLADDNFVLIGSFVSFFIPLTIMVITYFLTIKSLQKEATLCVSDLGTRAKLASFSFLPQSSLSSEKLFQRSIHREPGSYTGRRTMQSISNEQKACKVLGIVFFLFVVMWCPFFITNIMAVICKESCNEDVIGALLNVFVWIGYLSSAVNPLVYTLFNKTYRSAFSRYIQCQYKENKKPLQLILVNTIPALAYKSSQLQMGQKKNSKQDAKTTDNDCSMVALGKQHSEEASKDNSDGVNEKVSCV
Mu-type opioid receptor, sequence (P35372 whole entry): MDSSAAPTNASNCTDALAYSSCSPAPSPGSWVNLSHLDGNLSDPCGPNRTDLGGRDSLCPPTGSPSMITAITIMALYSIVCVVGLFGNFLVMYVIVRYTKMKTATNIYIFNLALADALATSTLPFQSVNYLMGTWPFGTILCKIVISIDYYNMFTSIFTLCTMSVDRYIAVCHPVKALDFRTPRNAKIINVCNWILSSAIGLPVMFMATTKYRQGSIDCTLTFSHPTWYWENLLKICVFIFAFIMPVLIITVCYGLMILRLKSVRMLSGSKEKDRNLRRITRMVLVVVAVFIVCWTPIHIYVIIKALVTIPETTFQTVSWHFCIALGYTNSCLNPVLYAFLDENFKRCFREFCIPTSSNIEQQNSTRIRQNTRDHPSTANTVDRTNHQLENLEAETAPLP

As for `CC(C)(C)C(=O)Oc1ccc(S(=O)(=O)Nc2ccccc2C(=O)NCC(=O)O)cc1`, the AC50 (in test [1]; on Mu-type opioid receptor; in test [2]; in test [3]; on Endothelin-1 receptor; on Progesterone receptor) was over 30 µM throughout. This compound had an AC50 on Cannabinoid receptor 1 of over 30 µM.

On to `CC(=O)O[C@H]1CC[C@@]2(C)C(=CC[C@@H]3[C@@H]2CC[C@]2(C)C(c4cccnc4)=CC[C@@H]32)C1` [ABIRATERONE ACETATE], for which the AC50 (in test [1]; in test [4]; at Mu-type opioid receptor; in test [3]; on Endothelin-1 receptor; at Progesterone receptor) was over 30 µM each time. The compound further returned an AC50 at Cannabinoid receptor 1 of over 30 µM.

For the compound `COC(=O)C1=C(C)NC(C)=C(C(=O)OC2CCCN(Cc3ccccc3)C2)C1c1cccc([N+](=O)[O-])c1` (centres undefined) [BENIDIPINE], the AC50 was over 30 µM in test [1]; 4.5 µM in test [4]; over 30 µM at Mu-type opioid receptor; over 30 µM in test [2]; over 30 µM in test [3]; over 30 µM on Endothelin-1 receptor. The compound also displayed an AC50 at Cannabinoid receptor 1 of over 30 µM.

In the case of `C=CCC1(CC(C)C)C(=O)NC(=O)NC1=O` [BUTALBITAL], the AC50 in test [1] is over 10 µM; in test [4] it was over 30 µM; at Mu-type opioid receptor, over 30 µM; in test [3] it was over 30 µM; on Progesterone receptor, over 10 µM.

Consider `O=C(O)C1=C(CSc2nnnn2CS(=O)(=O)O)CS[C@@H]2[C@H](NC(=O)[C@H](O)c3ccccc3)C(=O)N12` [CEFONICID], for which the AC50 (in test [1]; in test [4]; on Mu-type opioid receptor; in test [2]; in test [3]; on Progesterone receptor) was over 30 µM each time.

With `Cc1cc(O)c(C(=O)N[C@@H](C(=O)N[C@@H]2C(=O)N3C(C(=O)O)=C(CSc4nnnn4C)CS[C@H]23)c2ccc(O)cc2)cn1` [CEFPIRAMIDE], the AC50 (in test [1]; on Mu-type opioid receptor; in test [2]; in test [3]; on Progesterone receptor) was over 30 µM in each case.

Turning to `Nc1nc(/C(=C/CC(=O)O)C(=O)N[C@@H]2C(=O)N3C(C(=O)O)=CCS[C@H]23)cs1` [CEFTIBUTEN], the AC50 (in test [1]; in test [4]; on Mu-type opioid receptor; in test [2]; in test [3]; at Progesterone receptor) was over 30 µM each time.

Consider `CC(C(=O)O)c1ccc(N2Cc3ccccc3C2=O)cc1` (centres undefined) [INDOPROFEN], for which the AC50 (in test [1]; in test [4]; on Mu-type opioid receptor; in test [2]; in test [3]; at Endothelin-1 receptor) was over 30 µM in each case. On Progesterone receptor, this compound displayed a half-maximal activity concentration (AC50) of 16.8 µM.

`COC(=O)C1=C(C)NC(C)=C(C(=O)OC(C)(C)CN(C)CCC(c2ccccc2)c2ccccc2)C1c1cccc([N+](=O)[O-])c1` (centres undefined) [LERCANIDIPINE]: the AC50 (in test [1]; at Mu-type opioid receptor; in test [2]; in test [3]; at Progesterone receptor) was over 30 µM each time.

As for `CC(Oc1c(Cl)cccc1Cl)C1=NCCN1` (centres undefined) [LOFEXIDINE], the concentration at half-maximal activity (AC50) in test [1] is over 30 µM; in test [4] it was 0.0071 µM; at Mu-type opioid receptor it was over 30 µM; in test [2] it was over 30 µM; in test [3], over 30 µM; at Endothelin-1 receptor, over 30 µM. Besides, the AC50 at Progesterone receptor was over 30 µM.

Regarding `CC(C)=CCC/C(C)=C/C=C/C(C)=C/C=C/C(C)=C/C=C/C=C(C)/C=C/C=C(C)/C=C/C=C(\C)CCC=C(C)C` [LYCOPENE], the AC50 (in test [1]; in test [4]; on Mu-type opioid receptor; in test [2]; in test [3]; at Endothelin-1 receptor) was over 30 µM throughout. This compound showed an AC50 at Progesterone receptor of over 30 µM.

As to `Cc1cccc(C(C)c2cnc[nH]2)c1C` (centres undefined) [MEDETOMIDINE], the AC50 (in test [1]; at Mu-type opioid receptor; in test [2]; in test [3]; on Progesterone receptor) was over 30 µM each time.

On to `O=C(O)/C=C/c1ccc(Cn2ccnc2)cc1` [OZAGREL], for which the AC50 (in test [1]; on Mu-type opioid receptor; in test [2]; in test [3]; on Endothelin-1 receptor; at Progesterone receptor) was over 30 µM in each case. The AC50 on Cannabinoid receptor 1 is over 30 µM.

`CCCC(C)C1(CC)C(=O)NC(=O)NC1=O` (centres undefined) [PENTOBARBITAL]: the half-maximal activity concentration (AC50) in test [1] is over 10 µM; in test [4] it was over 30 µM; at Mu-type opioid receptor, over 30 µM; in test [3], over 30 µM; on Progesterone receptor it was over 10 µM.

`COC(=O)[C@H]1[C@H]2C[C@@H]3c4[nH]c5cc(OC)ccc5c4CCN3C[C@H]2C[C@@H](OC(=O)/C=C/c2cc(OC)c(OC)c(OC)c2)[C@@H]1OC` [RESCINNAMINE]: the AC50 is over 10 µM in test [1], over 30 µM on Mu-type opioid receptor, over 10 µM in test [3] and over 10 µM at Progesterone receptor.

As for `C[C@H](CSC(=O)c1ccccc1)C(=O)N1C[C@@H](Sc2ccccc2)C[C@H]1C(=O)O` [ZOFENOPRIL], the AC50 in test [1] was over 10 µM; at Mu-type opioid receptor it was over 30 µM; in test [3], over 10 µM; at Progesterone receptor, over 10 µM.

In general, AC50 refers to the concentration giving half of the maximal activity seen. Read a low AC50 as activity at low concentration.
